In paper PMC12300041, “Tricyclic Isatin Derivatives as Anti-Inflammatory Compounds with High Kinase Binding Affinity” (Molecules, 2025):

Assays:
Assay in all cases: KINOMEscan
Type in all cases: binding
BTK = molecular target: T1, BTK (Homo sapiens, UniProt Q06187)
T1 construct: purchased Eurofins DiscoverX KINOMEscan
How it was run: (§1)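 Binding reactions proceed for 1 h at room temperature. Kinase not bound by compound is captured on immobilized affinity ligand and quantified by qPCR; Kd is fitted over 12 half-log concentrations, top 33 μM.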

MLK3 = molecular target: T2, MLK3 (Homo sapiens, UniProt Q16584)
T2 construct: purchased Eurofins DiscoverX KINOMEscan
How it was run: (§2)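 Kd values rest on a 12-point half-log titration, highest concentration 33 μM, with 1 h room-temperature binding and qPCR read-out of affinity-captured free kinase.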

FLT3 (D835H) = molecular target: T3, FLT3 (D835H) (Homo sapiens, UniProt P36888, D835H)
T3 construct: purchased Eurofins DiscoverX KINOMEscan
How it was run: as §1

CDK5 = molecular target: T4, CDK5 (Homo sapiens, UniProt Q00535)
T4 construct: purchased Eurofins DiscoverX KINOMEscan
How it was run: as §1

FGFR2 = molecular target: T5, FGFR2 (Homo sapiens, UniProt P21802)
T5 construct: purchased Eurofins DiscoverX KINOMEscan
How it was run: as §1

JNK2 = molecular target: T6, JNK2 (Homo sapiens, UniProt P45984)
T6 construct: purchased Eurofins DiscoverX KINOMEscan
How it was run: as §1

HUNK = molecular target: T7, HUNK (Homo sapiens, UniProt P57058)
T7 construct: purchased Eurofins DiscoverX KINOMEscan
How it was run: as §2

AKT2 = molecular target: T8, AKT2 (Homo sapiens, UniProt P31751)
T8 construct: purchased Eurofins DiscoverX KINOMEscan
How it was run: as §1

MKNK1 = molecular target: T9, MKNK1 (Homo sapiens, UniProt Q9BUB5)
T9 construct: purchased Eurofins DiscoverX KINOMEscan
How it was run: as §1

PKAC-α = molecular target: T10, PKAC-α (Homo sapiens, UniProt P17612)
T10 construct: purchased Eurofins DiscoverX KINOMEscan
How it was run: as §1

KIT (D816V) = molecular target: T11, KIT (D816V) (Homo sapiens, UniProt P10721, D816V)
T11 construct: purchased Eurofins DiscoverX KINOMEscan
How it was run: as §1

TNIK = molecular target: T12, TNIK (Homo sapiens, UniProt Q9UKE5)
T12 construct: purchased Eurofins DiscoverX KINOMEscan
How it was run: as §1

FRK = molecular target: T13, FRK (Homo sapiens, UniProt P42685)
T13 construct: purchased Eurofins DiscoverX KINOMEscan
How it was run: as §1

MET (Y1235D) = molecular target: T14, MET (Y1235D) (Homo sapiens, UniProt P08581, Y1235D)
T14 construct: purchased Eurofins DiscoverX KINOMEscan
How it was run: as §1

MTOR = molecular target: T15, MTOR (Homo sapiens, UniProt P42345)
T15 construct: purchased Eurofins DiscoverX KINOMEscan
How it was run: as §2

DMPK = molecular target: T16, DMPK (Homo sapiens, UniProt Q09013)
T16 construct: purchased Eurofins DiscoverX KINOMEscan
How it was run: as §2

PIK3CA (E542K) = molecular target: T17, PIK3CA (E542K) (Homo sapiens, UniProt P42336, E542K)
T17 construct: purchased Eurofins DiscoverX KINOMEscan
How it was run: as §2

PIP5K2B = molecular target: T18, PIP5K2B (Homo sapiens, UniProt P78356)
T18 construct: purchased Eurofins DiscoverX KINOMEscan
How it was run: as §2

FLT3 (D835V) = molecular target: T19, FLT3 (D835V) (Homo sapiens, UniProt P36888, D835V)
T19 construct: purchased Eurofins DiscoverX KINOMEscan
How it was run: as §1

CDK4 = molecular target: T20, CDK4 (Homo sapiens, UniProt P11802)
T20 construct: purchased Eurofins DiscoverX KINOMEscan
How it was run: as §1

ERK2 = molecular target: T21, ERK2 (Homo sapiens, UniProt P28482)
T21 construct: purchased Eurofins DiscoverX KINOMEscan
How it was run: as §1

GSK3B = molecular target: T22, GSK3B (Homo sapiens, UniProt P49841)
T22 construct: purchased Eurofins DiscoverX KINOMEscan
How it was run: as §2

EGFR (T790M) = molecular target: T23, EGFR (T790M) (Homo sapiens, UniProt P00533, T790M)
T23 construct: purchased Eurofins DiscoverX KINOMEscan
How it was run: as §2

FLT3 (N841I) = molecular target: T24, FLT3 (N841I) (Homo sapiens, UniProt P36888, N841I)
T24 construct: purchased Eurofins DiscoverX KINOMEscan
How it was run: as §1

TLK2 = molecular target: T25, TLK2 (Homo sapiens, UniProt Q86UE8)
T25 construct: purchased Eurofins DiscoverX KINOMEscan
How it was run: as §1

MRCKB = molecular target: T26, MRCKB (Homo sapiens, UniProt Q9Y5S2)
T26 construct: purchased Eurofins DiscoverX KINOMEscan
How it was run: as §1

FLT4 = molecular target: T27, FLT4 (Homo sapiens, UniProt P35916)
T27 construct: purchased Eurofins DiscoverX KINOMEscan
How it was run: as §1

MINK = molecular target: T28, MINK (Homo sapiens, UniProt Q8N4C8)
T28 construct: purchased Eurofins DiscoverX KINOMEscan
How it was run: as §2

GAK = molecular target: T29, GAK (Homo sapiens, UniProt O14976)
T29 construct: purchased Eurofins DiscoverX KINOMEscan
How it was run: as §1

GRK4 = molecular target: T30, GRK4 (Homo sapiens, UniProt P32298)
T30 construct: purchased Eurofins DiscoverX KINOMEscan
How it was run: as §1

ERK8 = molecular target: T31, ERK8 (Homo sapiens, UniProt Q8TD08)
T31 construct: purchased Eurofins DiscoverX KINOMEscan
How it was run: as §2

KIT (V559D, T670I) = molecular target: T32, KIT (V559D, T670I) (Homo sapiens, UniProt P10721, T670I/V559D)
T32 construct: purchased Eurofins DiscoverX KINOMEscan
How it was run: as §1

ABL1 (E255K)-P = molecular target: T33, ABL1 (E255K)-P (Homo sapiens, UniProt P00519, E255K)
T33 construct: purchased Eurofins DiscoverX KINOMEscan
T33 sequence (P00519 whole entry E255K): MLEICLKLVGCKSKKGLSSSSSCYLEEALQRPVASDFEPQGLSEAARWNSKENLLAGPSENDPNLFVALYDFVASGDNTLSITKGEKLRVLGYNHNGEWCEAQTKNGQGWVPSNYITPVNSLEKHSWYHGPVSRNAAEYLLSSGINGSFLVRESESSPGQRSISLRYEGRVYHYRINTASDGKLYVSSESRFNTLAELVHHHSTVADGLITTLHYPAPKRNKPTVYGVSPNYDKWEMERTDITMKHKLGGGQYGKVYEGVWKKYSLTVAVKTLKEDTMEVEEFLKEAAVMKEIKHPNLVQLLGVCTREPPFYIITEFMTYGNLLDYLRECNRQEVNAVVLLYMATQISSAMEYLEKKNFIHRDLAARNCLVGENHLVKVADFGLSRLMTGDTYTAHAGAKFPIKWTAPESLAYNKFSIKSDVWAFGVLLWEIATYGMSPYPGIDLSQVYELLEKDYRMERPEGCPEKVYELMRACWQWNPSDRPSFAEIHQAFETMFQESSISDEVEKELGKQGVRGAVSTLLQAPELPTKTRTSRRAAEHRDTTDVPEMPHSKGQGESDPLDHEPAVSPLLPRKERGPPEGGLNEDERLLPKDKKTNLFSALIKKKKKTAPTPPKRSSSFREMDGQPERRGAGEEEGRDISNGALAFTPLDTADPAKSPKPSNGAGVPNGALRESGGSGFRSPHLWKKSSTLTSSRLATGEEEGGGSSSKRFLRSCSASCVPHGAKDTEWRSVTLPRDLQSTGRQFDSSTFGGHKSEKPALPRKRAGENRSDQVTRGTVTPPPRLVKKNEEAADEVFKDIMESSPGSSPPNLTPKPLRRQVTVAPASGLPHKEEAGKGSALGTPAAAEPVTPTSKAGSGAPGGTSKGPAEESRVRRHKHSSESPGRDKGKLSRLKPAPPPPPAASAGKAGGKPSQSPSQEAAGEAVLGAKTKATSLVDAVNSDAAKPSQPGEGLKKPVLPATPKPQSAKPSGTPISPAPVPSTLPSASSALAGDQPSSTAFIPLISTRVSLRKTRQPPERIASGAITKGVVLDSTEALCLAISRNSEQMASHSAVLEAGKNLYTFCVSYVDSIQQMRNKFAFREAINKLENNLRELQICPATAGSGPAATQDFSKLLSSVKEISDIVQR
How it was run: as §1

ERBB2 = molecular target: T34, ERBB2 (Homo sapiens, UniProt P04626)
T34 construct: purchased Eurofins DiscoverX KINOMEscan
How it was run: as §1

MST1R = molecular target: T35, MST1R (Homo sapiens, UniProt Q04912)
T35 construct: purchased Eurofins DiscoverX KINOMEscan
T35 sequence (Q04912 25-1400): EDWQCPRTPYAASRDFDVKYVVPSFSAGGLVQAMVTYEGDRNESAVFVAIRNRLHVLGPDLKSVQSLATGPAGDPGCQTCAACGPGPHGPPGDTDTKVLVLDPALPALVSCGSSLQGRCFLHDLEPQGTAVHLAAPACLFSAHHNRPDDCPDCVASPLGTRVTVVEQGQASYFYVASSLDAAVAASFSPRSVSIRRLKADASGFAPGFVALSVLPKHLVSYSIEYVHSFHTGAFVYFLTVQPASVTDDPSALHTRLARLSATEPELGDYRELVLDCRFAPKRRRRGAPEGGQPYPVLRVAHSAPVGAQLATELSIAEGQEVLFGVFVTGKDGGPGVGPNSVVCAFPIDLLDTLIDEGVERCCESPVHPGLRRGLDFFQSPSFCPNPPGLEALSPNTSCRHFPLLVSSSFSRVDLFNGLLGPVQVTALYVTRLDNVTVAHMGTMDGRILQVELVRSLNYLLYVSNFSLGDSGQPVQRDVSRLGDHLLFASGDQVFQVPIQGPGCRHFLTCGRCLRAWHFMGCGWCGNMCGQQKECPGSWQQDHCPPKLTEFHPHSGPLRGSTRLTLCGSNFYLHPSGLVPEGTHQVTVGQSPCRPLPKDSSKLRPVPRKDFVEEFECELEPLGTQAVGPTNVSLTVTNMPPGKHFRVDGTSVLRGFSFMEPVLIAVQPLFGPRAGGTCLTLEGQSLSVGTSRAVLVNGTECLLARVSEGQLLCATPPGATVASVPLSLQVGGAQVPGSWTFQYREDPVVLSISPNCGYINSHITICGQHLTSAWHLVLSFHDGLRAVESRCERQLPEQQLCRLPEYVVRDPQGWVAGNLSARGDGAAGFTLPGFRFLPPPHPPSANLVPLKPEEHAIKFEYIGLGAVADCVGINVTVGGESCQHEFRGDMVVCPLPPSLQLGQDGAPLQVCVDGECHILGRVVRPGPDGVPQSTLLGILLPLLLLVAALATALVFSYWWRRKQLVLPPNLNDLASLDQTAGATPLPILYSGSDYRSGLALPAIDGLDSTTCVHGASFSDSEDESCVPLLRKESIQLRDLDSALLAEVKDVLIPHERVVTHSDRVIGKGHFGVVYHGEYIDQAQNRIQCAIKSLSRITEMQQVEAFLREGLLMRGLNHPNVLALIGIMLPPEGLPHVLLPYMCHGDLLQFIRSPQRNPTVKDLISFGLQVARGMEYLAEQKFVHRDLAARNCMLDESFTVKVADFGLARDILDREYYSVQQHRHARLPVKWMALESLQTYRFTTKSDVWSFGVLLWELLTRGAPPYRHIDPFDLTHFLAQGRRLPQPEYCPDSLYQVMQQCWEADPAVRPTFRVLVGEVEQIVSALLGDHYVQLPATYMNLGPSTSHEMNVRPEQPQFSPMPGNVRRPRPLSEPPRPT
How it was run: as §1

MET (M1250T) = molecular target: T36, MET (M1250T) (Homo sapiens, UniProt P08581, M1250T)
T36 construct: purchased Eurofins DiscoverX KINOMEscan
T36 sequence (P08581 25-1390 M1250T): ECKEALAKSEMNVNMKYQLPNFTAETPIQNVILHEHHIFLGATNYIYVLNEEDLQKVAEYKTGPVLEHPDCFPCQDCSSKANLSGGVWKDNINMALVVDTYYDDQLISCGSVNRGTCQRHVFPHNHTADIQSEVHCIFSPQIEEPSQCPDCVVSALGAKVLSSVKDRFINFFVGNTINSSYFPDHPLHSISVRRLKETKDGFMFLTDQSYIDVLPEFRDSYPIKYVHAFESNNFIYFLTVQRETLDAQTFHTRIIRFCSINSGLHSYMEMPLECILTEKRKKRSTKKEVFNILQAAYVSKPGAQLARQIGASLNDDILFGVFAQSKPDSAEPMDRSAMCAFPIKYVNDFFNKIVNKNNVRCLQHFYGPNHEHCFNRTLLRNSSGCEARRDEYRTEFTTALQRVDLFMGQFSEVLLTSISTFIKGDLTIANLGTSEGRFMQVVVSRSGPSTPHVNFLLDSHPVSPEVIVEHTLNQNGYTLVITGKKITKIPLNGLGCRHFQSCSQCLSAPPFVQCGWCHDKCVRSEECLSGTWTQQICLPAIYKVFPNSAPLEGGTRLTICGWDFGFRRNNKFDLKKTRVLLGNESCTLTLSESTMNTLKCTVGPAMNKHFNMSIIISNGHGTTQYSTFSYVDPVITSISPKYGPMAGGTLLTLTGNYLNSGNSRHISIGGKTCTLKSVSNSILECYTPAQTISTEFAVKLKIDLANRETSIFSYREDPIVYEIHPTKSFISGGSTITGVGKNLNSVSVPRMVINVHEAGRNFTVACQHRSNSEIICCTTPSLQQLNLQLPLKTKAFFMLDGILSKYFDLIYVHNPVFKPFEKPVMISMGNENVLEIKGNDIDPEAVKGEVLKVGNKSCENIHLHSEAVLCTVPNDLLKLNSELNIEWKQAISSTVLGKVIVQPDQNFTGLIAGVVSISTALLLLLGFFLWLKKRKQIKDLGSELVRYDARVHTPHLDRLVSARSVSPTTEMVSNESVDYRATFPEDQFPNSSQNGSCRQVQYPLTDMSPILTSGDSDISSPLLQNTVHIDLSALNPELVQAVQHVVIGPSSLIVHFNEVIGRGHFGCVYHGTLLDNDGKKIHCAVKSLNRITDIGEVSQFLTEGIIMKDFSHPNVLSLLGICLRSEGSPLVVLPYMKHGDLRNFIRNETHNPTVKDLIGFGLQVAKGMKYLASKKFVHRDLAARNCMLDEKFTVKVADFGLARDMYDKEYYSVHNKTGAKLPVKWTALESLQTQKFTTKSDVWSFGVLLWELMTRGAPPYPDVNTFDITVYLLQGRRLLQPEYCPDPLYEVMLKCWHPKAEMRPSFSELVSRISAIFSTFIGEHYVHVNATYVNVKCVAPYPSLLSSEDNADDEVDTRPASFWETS
How it was run: as §1

ACVR2A = molecular target: T37, ACVR2A (Homo sapiens, UniProt P27037)
T37 construct: purchased Eurofins DiscoverX KINOMEscan
T37 sequence (P27037 20-513): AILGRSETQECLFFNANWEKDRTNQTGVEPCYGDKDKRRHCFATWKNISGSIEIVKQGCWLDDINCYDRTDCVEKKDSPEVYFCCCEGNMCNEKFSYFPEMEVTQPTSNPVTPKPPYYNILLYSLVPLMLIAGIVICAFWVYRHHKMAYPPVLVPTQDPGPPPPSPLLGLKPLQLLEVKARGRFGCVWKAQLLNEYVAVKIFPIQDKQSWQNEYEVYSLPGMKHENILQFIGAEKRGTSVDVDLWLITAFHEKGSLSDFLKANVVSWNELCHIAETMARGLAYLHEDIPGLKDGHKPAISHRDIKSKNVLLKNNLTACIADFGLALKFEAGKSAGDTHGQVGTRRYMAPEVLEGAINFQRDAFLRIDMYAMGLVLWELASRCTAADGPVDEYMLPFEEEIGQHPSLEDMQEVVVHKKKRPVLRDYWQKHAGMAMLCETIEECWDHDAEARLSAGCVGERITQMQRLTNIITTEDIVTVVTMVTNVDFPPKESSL
How it was run: as §2

YES = molecular target: T38, YES (Homo sapiens, UniProt P07947)
T38 construct: purchased Eurofins DiscoverX KINOMEscan
T38 sequence (P07947 whole entry): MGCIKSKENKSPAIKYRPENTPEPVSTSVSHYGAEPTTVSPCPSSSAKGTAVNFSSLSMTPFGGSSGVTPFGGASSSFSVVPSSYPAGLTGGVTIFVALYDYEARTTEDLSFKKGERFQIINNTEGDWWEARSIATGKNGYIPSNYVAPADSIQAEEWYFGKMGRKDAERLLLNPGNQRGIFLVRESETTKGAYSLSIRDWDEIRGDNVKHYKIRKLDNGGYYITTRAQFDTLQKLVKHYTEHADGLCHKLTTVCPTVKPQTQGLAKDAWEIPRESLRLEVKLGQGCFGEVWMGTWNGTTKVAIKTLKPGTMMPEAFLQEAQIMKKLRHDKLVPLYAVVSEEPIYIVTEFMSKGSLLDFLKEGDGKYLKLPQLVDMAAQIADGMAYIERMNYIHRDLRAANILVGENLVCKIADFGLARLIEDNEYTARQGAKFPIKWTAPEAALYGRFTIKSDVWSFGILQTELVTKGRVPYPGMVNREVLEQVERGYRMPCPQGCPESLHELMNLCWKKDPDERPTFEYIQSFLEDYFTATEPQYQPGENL
How it was run: as §1

FLT3-autoinhibited = molecular target: T39, FLT3-autoinhibited (Homo sapiens, UniProt P36888)
T39 construct: purchased Eurofins DiscoverX KINOMEscan
How it was run: as §1

SMILES: O=C1Nc2c(cc([N+](=O)[O-])c3c2CCCC3)C1=NO [Compound 5d, 3-(Hydroxyimino)-5-nitro-1,3,6,7,8,9-hexahydro-2H-benzo[g]indol-2-one]
- inhibition at 10 µM (BTK): 39%
- inhibition at 10 µM (MLK3): 31%
- inhibition at 10 µM (FLT3 (D835H)): 35%
- inhibition at 10 µM (CDK5): 1%
- inhibition at 10 µM (FGFR2): 19%
- inhibition at 10 µM (JNK2): 49%
- inhibition at 10 µM (HUNK): 0%
- inhibition at 10 µM (AKT2): 0%
- inhibition at 10 µM (MKNK1): 72%
- inhibition at 10 µM (PKAC-α): 0%
- inhibition at 10 µM (KIT (D816V)): 22%
- inhibition at 10 µM (TNIK): 65%
- inhibition at 10 µM (FRK): 0%
- inhibition at 10 µM (MET (Y1235D)): 25%
- inhibition at 10 µM (MTOR): 56%
- inhibition at 10 µM (DMPK): 49%
- inhibition at 10 µM (PIK3CA (E542K)): 43%
- inhibition at 10 µM (PIP5K2B): 64%
- inhibition at 10 µM (FLT3 (D835V)): 72%
- inhibition at 10 µM (CDK4): 7%
- inhibition at 10 µM (ERK2): 8%
- inhibition at 10 µM (GSK3B): 29%
- inhibition at 10 µM (EGFR (T790M)): 0%
- inhibition at 10 µM (FLT3 (N841I)): 0%
- inhibition at 10 µM (TLK2): 0%
- inhibition at 10 µM (MRCKB): 0%
- inhibition at 10 µM (FLT4): 8%
- inhibition at 10 µM (MINK): 70%
- inhibition at 10 µM (GAK): 49%
- inhibition at 10 µM (GRK4): 34%
- inhibition at 10 µM (ERK8): 50%
- inhibition at 10 µM (KIT (V559D, T670I)): 55%
- inhibition at 10 µM (ABL1 (E255K)-P): 57%
- inhibition at 10 µM (ERBB2): 29%
- inhibition at 10 µM (MST1R): 0%
- inhibition at 10 µM (MET (M1250T)): 51%
- inhibition at 10 µM (ACVR2A): 10%
- inhibition at 10 µM (YES): 26%
- inhibition at 10 µM (FLT3-autoinhibited): 4%
